This passage reports EC50 results from US8791155B2, “Chroman derivatives” (Edison Pharmaceuticals, Inc., priority 2003, dated 2014).

Test [1] concerns FRDA fibroblasts. The experiment in a line: FRDA fibroblast assay for protection from oxidative stress (BSO). The note with it: Homo sapiens, preincubation 24 h before 1 mM BSO, read-out: EC50, reduced cell death in FRDA fibroblasts compared to untreated FRDA fibroblasts. Type of test: cell-based. An excerpt:
A cellular assay using FRDA-patient derived fibroblasts (as described by Jauslin, M L et al, Human Molecular Genetics 11; 3055-3063 (2002)); was used to determine the protective effects of the test compounds by analyzing survival of dermal fibroblasts taken from FRDA patients and unaffected normal donors under conditions of partial GSH depletion. Exposure of FRDA fibroblasts to BSO (L-buthionine (S,R)-sulfoximine) under conditions of restricted selenium causes depletion of cellular glutathione (GSH) and severe plasma membrane damage leading to cell death. Preincubation with the test compounds before the addition of BSO was used to determine if they could protect FRDA cells from BSO-mediated cell death.
Primary fibroblasts were derived from donors with a molecular diagnosis of FRDA and control donors with no mitochondria) disease. Lines F2, C2 and C3 were obtained from Coriell Cell Repositories (Camden, N.J., USA; catalog nos GM04078, GM 08402 and GM08399, respectively). All cell types were diagnosed at the molecular level for intronic GAA triplet repeat length in the frataxin gene using a PCR-based method, according to methods known in the art. […] The cells were seeded in 96-well plates at a density of 4000 cells per 100 pI in growth medium consisting of 25% (v/v) M199 EBS and 64% (v/v) MEM EBS without phenol red (Bioconcept, Allschwil, Switzerland) supplemented with 10% (v/v) fetal calf serum (PAA Laboratories, Linz, Austria), 100 U/ml penicillin, 100 μg/ml streptomycin (PAA Laboratories, Linz, Austria), 10 μg/ml insulin (Sigma, Buchs, Switzerland), 10 ng/ml EGF (Sigma, Buchs, Switzerland), 10 ng/ml bFGF (PreproTech, Rocky Hill, N.J., USA) and 2 mM glutamine (Sigma, Buchs, Switzerland). The cells were incubated in the presence of the various test compounds for 24 h before addition of 1 mM BSO (L-buthionine (S,R)-sulfoximine).
Cell viability was measured after the first signs of toxicity appeared in the BSO-treated controls (typically after 16-48 h). The cells were stained for 60 min at room temperature in PBS with 1.2 μm calceinAM and 4 pm ethidium homodimer (Live/Dead assay, Molecular Probes, Eugene, Oreg., USA). Fluorescence intensity was measured with a Gemini Spectramax XS spectrofluorimeter (Molecular Devices, Sunnyvale, Calif., USA) using excitation and emission wavelengths of 485 and 525 nm, respectively.

For test [2], the system named is release of the leukotriene LTB4 from MPRO cell line. As to the kind of experiment: LTB4 assay (competitive ELISA). Format: cell-based. To be noted: Mus musculus; 1 μM calcium ionophore A23187, 1 hour; read-out: EC50, inhibition of LTB4 production. An excerpt:
This procedure was used for measuring the release of the leukotriene LTB4 from a neutrophil cell line using a competitive ELISA technique.
• MPRO cell line (ATCC, Catalog #CRL-11422) • Calciumionophore (A23187) (Sigma, Catalog #C7522) • Nordihydroguaiaretic acid (NDGA) (BioMol, Catalog #E1101-0001) • Retinoic Acid (all-trans) (ATRA) (Sigma, Catalog #95152) • Sterile, tissue-culture treated 96-well plates (Corning, Catalog #3614) Materials for LTB4 ELISA • Precoated (Mouse Anti-Rabbit IgG) EIA 96 Well Strip Plates (Cayman, Catalog #400004) • Leukotriene B4 AChE Tracer (Cayman Catalog #420110) • Leukotriene B4 EIA Antiserum (Cayman Catalog #420112) • Ellman's Reagent (Cayman Catalog #400050) • EIA Buffer Concentrate (10×) (Cayman Catalog #400060) • Wash Buffer Concentrate (400×) (Cayman Catalog #400062) • Plastic plate covers (Cayman Catalog #400012) Procedure
A mouse promyelocytic cell line (MPRO) was used in this assay. These cells are committed immature neutrophils that can be differentiated into mature neutrophils by treatment with 10 μM all-trans retinoic acid for 72 hours
Following 72 hours of differentiation, cells were stimulated with 1 μM of a calcium ionophore (A23187) in the presence or absence of test compound or vehicle for 1 hour at 370 C. After this time, supernatant was removed from the cells and the LTB4 levels were determined following manufacturer's instructions, using a Leukotriene B4 EIA kit from Cayman (Cat #520111)
The negative controls were media samples from differentiated but unstimulated cells.
The compounds were screened at 5 concentrations in quadruplicate starting at 10 μM

For the compound `CC1=NN(c2ccccc2)C(=O)C1C(CCC1(C)CCc2cc(O)c(C)c(C)c2O1)C1C(=O)N(c2ccccc2)N=C1C` (stereo not drawn) [1-(6-Hydroxy-2,7,8-trimethyl-chroman-2-yl)-3-bis-(5-methyl-2-phenyl-2,4-dihydro-pyrazol-3-one-4-yl)-propane], the concentration giving a half-maximal response (EC50) in test [1] was in the range of 10 to 6000 nM.
`COC(=O)c1ccc(-c2c(O)c(C)c(C)c3c2CCC(C)(C)O3)cc1` [4-(6-Hydroxy-2,2,7,8-tetramethyl-chroman-5-yl)-benzoic acid methyl ester]: in test [2], the EC50 is less than 1000 nM.
On to `Cc1c(O)cc2c(c1C)OC(C)(CC/C=C1\SC(=O)NC1=O)CC2` (stereo not drawn) [5-[3-(6-Hydroxy-2,7,8-trimethyl-chroman-2-yl)-propylidene]-thiazolidine-2,4-dione], for which the 50% effective concentration (EC50) in test [1] was 10 to 6000 nM.
With `Cc1c(C)c2c(c(C)c1O)CCC(C)(C=C(Br)Br)O2` (stereo not drawn) [2-(2,2-Dibromo-vinyl)-2,5,7,8-tetramethyl-chroman-6-ol], the EC50 in test [2] was less than 1000 nM.
Consider `C=CCSCc1c(O)c(C)c(C)c2c1CCC(C)(C)O2` [5-Allylsulfanylmethyl-2,2,7,8-tetramethyl-chroman-6-ol], for which the EC50 is 10 to 6000 nM in test [1] and less than 1000 nM in test [2].
